Results: ChEMBL document CHEMBL3822390, “Synthesis, characterization and anti-cancer activity of a peptide nucleolipid bioconjugate” (2016)

Tests used:
Type in all cases: functional
ACHN = test: Cytotoxicity against human ACHN cells assessed as cell growth at 10 uM after 48 hrs by SRB assay; details: read-out: Activity
[1] = Cytotoxicity against human RPMI8226 cells assessed as cell growth at 10 uM after 48 hrs by SRB assay; details: RPMI-8226, 48 h, read-out: Activity
[2] = Cytotoxicity against human HCT116 cells assessed as cell growth at 10 uM after 48 hrs by SRB assay; details: HCT-116, 48 h, read-out: Activity
[3] = Cytotoxicity against human SNB75 cells assessed as cell growth at 10 uM after 48 hrs by SRB assay; details: SNB-75, 48 h, read-out: Activity
MDA-MB-468 = test: Cytotoxicity against human MDA-MB-468 cells assessed as cell growth at 10 uM after 48 hrs by SRB assay; details: MDA-MB-468, 48 h, read-out: Activity
MCF7 = test: Cytotoxicity against human MCF7 cells assessed as cell growth at 10 uM after 48 hrs by SRB assay; details: MCF7, 48 h, read-out: Activity
A498 = test: Cytotoxicity against human A498 cells assessed as cell growth at 10 uM after 48 hrs by SRB assay; details: A498, 48 h, read-out: Activity
[4] = Cytotoxicity against human SKOV3 cells assessed as cell growth at 10 uM after 48 hrs by SRB assay; details: SK-OV-3, 48 h, read-out: Activity
EKVX = test: Cytotoxicity against human EKVX cells assessed as cell growth at 10 uM after 48 hrs by SRB assay; details: read-out: Activity
A549 [5] = test: Cytotoxicity against human A549 cells assessed as cell mortality at 10 uM after 48 hrs by SRB assay; details: A549, 48 h
NCI-H460 [6] = test: Cytotoxicity against human NCI-H460 cells assessed as cell growth at 10 uM after 48 hrs by SRB assay; details: NCI-H460, 48 h, read-out: Activity
NCI-H226 [7] = test: Cytotoxicity against human NCI-H226 cells assessed as cell growth at 10 uM after 48 hrs by SRB assay; details: NCI-H226, 48 h, read-out: Activity
[8] = Cytotoxicity against human SNB19 cells assessed as cell growth at 10 uM after 48 hrs by SRB assay; details: SNB-19, 48 h, read-out: Activity
[9] = Cytotoxicity against human OVCAR4 cells assessed as cell growth at 10 uM after 48 hrs by SRB assay; details: OVCAR-4, 48 h, read-out: Activity
NCI-H23 = test: Cytotoxicity against human NCI-H23 cells assessed as cell growth at 7.25 uM after 48 hrs by SRB assay; details: NCI-H23, 48 h, read-out: Activity
SR [10] = test: Cytotoxicity against human SR cells assessed as cell growth at 7.25 uM after 48 hrs by SRB assay; details: read-out: Activity
[11] = Cytotoxicity against human BT549 cells assessed as cell growth at 7.25 uM after 48 hrs by SRB assay; details: BT-549, 48 h, read-out: Activity
[12] = Cytotoxicity against human NCI-ADR-RES cells assessed as cell growth at 7.25 uM after 48 hrs by SRB assay; details: read-out: Activity
[13] = Cytotoxicity against human OVCAR4 cells assessed as cell growth at 7.25 uM after 48 hrs by SRB assay; details: OVCAR-4, 48 h, read-out: Activity
CCRF-CEM = test: Cytotoxicity against human CCRF-CEM cells assessed as cell growth at 7.25 uM after 48 hrs by SRB assay; details: read-out: Activity
[14] = Cytotoxicity against human SNB19 cells assessed as cell growth at 7.25 uM after 48 hrs by SRB assay; details: SNB-19, 48 h, read-out: Activity
[15] = Cytotoxicity against human HCT116 cells assessed as cell growth at 7.25 uM after 48 hrs by SRB assay; details: HCT-116, 48 h, read-out: Activity
NCI-H460 [16] = test: Cytotoxicity against human NCI-H460 cells assessed as cell growth at 7.25 uM after 48 hrs by SRB assay; details: NCI-H460, 48 h, read-out: Activity
[17] = Cytotoxicity against human Hs 578T cells assessed as cell growth at 7.25 uM after 48 hrs by SRB assay; details: read-out: Activity
[18] = Cytotoxicity against human UACC257 cells assessed as cell growth at 7.25 uM after 48 hrs by SRB assay; details: UACC-257, 48 h, read-out: Activity
[19] = Cytotoxicity against human SW620 cells assessed as cell growth at 7.25 uM after 48 hrs by SRB assay; details: SW-620, 48 h, read-out: Activity
SK-MEL-28 = test: Cytotoxicity against human SK-MEL-28 cells assessed as cell growth at 7.25 uM after 48 hrs by SRB assay; details: SK-MEL-28, 48 h, read-out: Activity
SR [20] = test: Cytotoxicity against human SR cells assessed as cell growth at 2.13 uM after 48 hrs by SRB assay; details: read-out: Activity
[21] = Cytotoxicity against human HCC2998 cells assessed as cell growth at 2.13 uM after 48 hrs by SRB assay; details: HCC 2998, 48 h, read-out: Activity
[22] = Cytotoxicity against human TK10 cells assessed as cell growth at 2.13 uM after 48 hrs by SRB assay; details: TK-10, 48 h, read-out: Activity
A549 [23] = test: Cytotoxicity against human A549 cells assessed as cell mortality at 2.13 uM after 48 hrs by SRB assay; details: A549, 48 h
SK-MEL-2 = test: Cytotoxicity against human SK-MEL-2 cells assessed as cell growth at 2.13 uM after 48 hrs by SRB assay; details: SK-MEL-2, 48 h, read-out: Activity
[24] = Cytotoxicity against human HL-60(TB) cells assessed as cell growth at 2.13 uM after 48 hrs by SRB assay; details: HL-60, 48 h, read-out: Activity
[25] = Cytotoxicity against human SKOV3 cells assessed as cell growth at 2.13 uM after 48 hrs by SRB assay; details: SK-OV-3, 48 h, read-out: Activity
[26] = Cytotoxicity against human IGROV1 cells assessed as cell growth at 2.13 uM after 48 hrs by SRB assay; details: IGROV-1, 48 h, read-out: Activity
SN12C = test: Cytotoxicity against human SN12C cells assessed as cell growth at 2.13 uM after 48 hrs by SRB assay; details: read-out: Activity
[27] = Cytotoxicity against human LOXIMVI cells assessed as cell growth at 2.13 uM after 48 hrs by SRB assay; details: LOX IMVI, read-out: Activity
[28] = Cytotoxicity against human Caki1 cells assessed as cell growth at 2.13 uM after 48 hrs by SRB assay; details: CAKI-1, 48 h, read-out: Activity
[29] = Cytotoxicity against human UACC257 cells assessed as cell growth at 2.13 uM after 48 hrs by SRB assay; details: UACC-257, 48 h, read-out: Activity
[30] = Cytotoxicity against human SF295 cells assessed as cell growth at 2.13 uM after 48 hrs by SRB assay; details: SF-295, 48 h, read-out: Activity
NCI-H226 [31] = test: Cytotoxicity against human NCI-H226 cells assessed as cell mortality at 2.13 uM after 48 hrs by SRB assay; details: NCI-H226, 48 h

Q: Which growth at 10 µM (ACHN) does the source give for CC(C)C[C@H](NC(=O)[C@H](CCCCN)NC(=O)[C@H](C)NC(=O)[C@H](CC(C)C)NC(=O)[C@H](CCCCN)NC(=O)[C@H](CCCCN)NC(=O)[C@H](C)NC(=O)[C@H](CC(C)C)NC(=O)[C@H](CCCCN)NC(=O)[C@H](C)NC(=O)[C@H](CC(C)C)NC(=O)[C@H](CCCCN)NC(=O)[C@@H](N)CC(=O)O)C(=O)N[C@@H](C)C(=O)N[C@@H](CCCCN)C(=O)N[C@@H](C)C(=O)N[C@@H](CCCCN)C(N)=O here?
A: 107%

Q: And the growth at 10 µM [1]?
A: 104%

Q: And the growth at 10 µM [2]?
A: 92.1%

Q: And the growth at 10 µM [3]?
A: 98.8%

Q: And the growth at 10 µM (MDA-MB-468)?
A: 100%

Q: What about the growth at 10 µM (MCF7) of the same compound?
A: 96.7%

Q: What about the growth at 10 µM (A498) of the same compound?
A: 115%

Q: What about the growth at 10 µM [4] of the same compound?
A: 98.7%

Q: What about the growth at 10 µM (EKVX) of the same compound?
A: 104%

Q: And the mortality at 10 µM (A549 [5])?
A: 19%

Q: What about the growth at 10 µM (NCI-H460 [6]) of the same compound?
A: 117%

Q: What about the growth at 10 µM (NCI-H226 [7]) of the same compound?
A: 99.1%

Q: And the growth at 10 µM [8]?
A: 106%

Q: And the growth at 10 µM [9]?
A: 109%

Q: With CCCCCCCCCCCCCCCC(=O)NCCCC[C@H](NC(=O)[C@H](C)NC(=O)[C@H](CCCCN)NC(=O)[C@H](C)NC(=O)[C@H](CC(C)C)NC(=O)[C@H](CCCCN)NC(=O)[C@H](C)NC(=O)[C@H](CC(C)C)NC(=O)[C@H](CCCCN)NC(=O)[C@H](CCCCN)NC(=O)[C@H](C)NC(=O)[C@H](CC(C)C)NC(=O)[C@H](CCCCN)NC(=O)[C@H](C)NC(=O)[C@H](CC(C)C)NC(=O)[C@H](CCCCN)NC(=O)[C@@H](N)CC(=O)O)C(N)=O as the compound, how does the growth at 7.25 µM (NCI-H23) read?
A: 104%

Q: What about the growth at 7.25 µM (SR [10]) of the same compound?
A: 91.9%

Q: What about the growth at 7.25 µM [11] of the same compound?
A: 104%

Q: And the growth at 7.25 µM [12]?
A: 111%

Q: And the growth at 7.25 µM [13]?
A: 116%

Q: And the growth at 7.25 µM (CCRF-CEM)?
A: 111%

Q: And the growth at 7.25 µM [14]?
A: 103%

Q: And the growth at 7.25 µM [15]?
A: 92.3%

Q: What about the growth at 7.25 µM (NCI-H460 [16]) of the same compound?
A: 107%

Q: And the growth at 7.25 µM [17]?
A: 101%

Q: What about the growth at 7.25 µM [18] of the same compound?
A: 73.1%

Q: And the growth at 7.25 µM [19]?
A: 107%

Q: And the growth at 7.25 µM (SK-MEL-28)?
A: 106%

Q: For CCCCCCCCCCCCCCCCNCCO[C@H]1C[C@H](n2cc(C)c(=O)[nH]c2=O)O[C@@H]1C(=O)NCCCC[C@H](NC(=O)[C@H](C)NC(=O)[C@H](CCCCN)NC(=O)[C@H](C)NC(=O)[C@H](CC(C)C)NC(=O)[C@H](CCCCN)NC(=O)[C@H](C)NC(=O)[C@H](CC(C)C)NC(=O)[C@H](CCCCN)NC(=O)[C@H](CCCCN)NC(=O)[C@H](C)NC(=O)[C@H](CC(C)C)NC(=O)[C@H](CCCCN)NC(=O)[C@H](C)NC(=O)[C@H](CC(C)C)NC(=O)[C@H](CCCCN)NC(=O)[C@@H](N)CC(=O)O)C(N)=O, which growth at 2.13 µM (SR [20]) is on record?
A: 96.6%

Q: What about the growth at 2.13 µM [21] of the same compound?
A: 104%

Q: And the growth at 2.13 µM [22]?
A: 95.9%

Q: What about the mortality at 2.13 µM (A549 [23]) of the same compound?
A: 31%

Q: What about the growth at 2.13 µM (SK-MEL-2) of the same compound?
A: 111%

Q: And the growth at 2.13 µM [24]?
A: 93.8%

Q: And the growth at 2.13 µM [25]?
A: 98.4%

Q: And the growth at 2.13 µM [26]?
A: 107%

Q: And the growth at 2.13 µM (SN12C)?
A: 103%

Q: What about the growth at 2.13 µM [27] of the same compound?
A: 94.6%

Q: And the growth at 2.13 µM [28]?
A: 96.1%

Q: And the growth at 2.13 µM [29]?
A: 75.8%

Q: What about the growth at 2.13 µM [30] of the same compound?
A: 97.7%

Q: And the mortality at 2.13 µM (NCI-H226 [31])?
A: 4%
